Experimental data taken from patent US8293786B2 (Alltranz Inc., priority 2007, dated 2012).

Test system: human abdominal skin
Experiment: In vitro human skin permeation and skin disposition, flow-through diffusion cells (Examples 2, 2A, 2B)
Type: in vitro ADME
Conditions: for Flux enhancement: total cannabidiol versus cannabidiol
Procedure, shortened: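 Dermatomed (~200 μm) frozen human abdominal skin was mounted in flow-through cells at 32° C (0.95 cm^2), stratum corneum to donor. Donors were 0.10 mL 45:4:1 PG:H2O:IPM solution or 50 μL gel; receiver was 40% PEG 400 (HEPES-Hanks pH 7.4 or aqueous) with gentamicin at 0.8 mL/h. Samples were taken every 3 h for 24-42 h; skin accumulation was expressed as μmol/g wet tissue.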

[1] = Table 19, gel formulation, 40% aqueous PEG 400 receiver fluid, as applied compound (CBD or intact prodrug)
[2] = Table 19, gel formulation, 40% aqueous PEG 400 receiver fluid, mono-prodrug (ALL00150) from applied di-prodrug
[3] = Table 19, gel formulation, 40% aqueous PEG 400 receiver fluid, prodrug applied, as total cannabidiol equivalents
[4] = Table 18, 90:8:2 PG:H2O:IPM donor solution, 40% aqueous PEG 400 receiver fluid, CBD from applied prodrug
[5] = Table 18, 90:8:2 PG:H2O:IPM donor solution, 40% aqueous PEG 400 receiver fluid, mono-prodrug from applied di-prodrug
[6] = Table 18, 90:8:2 PG:H2O:IPM donor solution, 40% aqueous PEG 400 receiver fluid, prodrug applied, as total cannabidiol equivalents
[7] = Table 16, 90:8:2 PG:H2O:IPM donor solution, 60/40 Hanks'/PEG 400 receiver fluid, as applied compound (CBD or intact prodrug)
[8] = Table 17, 90:8:2 PG:H2O:IPM donor solution, 40% aqueous PEG 400 receiver fluid, as applied compound (CBD or intact prodrug)
[9] = Table 18, 90:8:2 PG:H2O:IPM donor solution, 40% aqueous PEG 400 receiver fluid, as applied compound (CBD or intact prodrug)
[10] = Table 21, gel formulation, 40% aqueous PEG 400 receiver fluid, as applied compound (CBD or intact prodrug)
[11] = Table 23, gel formulation, 40% aqueous PEG 400 receiver fluid, as applied compound (CBD or intact prodrug)

SMILES: C=C(C)[C@@H]1CCC(C)=C[C@H]1c1c(OC(=O)CCN(C)C)cc(CCCCC)cc1OC(=O)CCN(C)C [ALL00101, CBD bis(3-(dimethylamino)propionate)]
- 24 h skin conc (Table 19, gel formulation, 40% aqueous PEG 400 receiver fluid, CBD from applied prodrug): 13.2 ± 10.4 µmol/g
- 24 h skin conc [1]: 0.8 ± 0.6 µmol/g
- 24 h cumulative amt [2]: 8.4 ± 1.3 nmol
- 24 h skin conc [2]: 34.7 ± 27.7 µmol/g
- Flux [2]: 0.4 ± 0.03 nmol/cm^2/h
- Lag time [2]: 2.9 ± 1.9 h
- 24 h cumulative amt [3]: 8.4 ± 1.3 nmol
- 24 h skin conc [3]: 48.7 ± 38.6 µmol/g
- Flux [3]: 0.4 ± 0.03 nmol/cm^2/h
- Lag time [3]: 2.9 ± 1.9 h
- Flux enhancement (Table 19, gel formulation, 40% aqueous PEG 400 receiver fluid): 0.52
- detected in the skin as (in gel formulation): trace small amounts of intact prodrug but mostly as mono-substituted prodrug, ALL00150, and cannabidiol
- flux compared to cannabidiol (in gel formulation): did not increase the flux
- lag time compared to cannabidiol (in gel formulation): decreased
- permeated through the skin as (in gel formulation): mono-substituted prodrug (ALL00150) only
- total skin concentrations compared to cannabidiol (in gel formulation): higher

SMILES: C=C(C)C1CCC(C)=CC1c1c(OC(=O)CN(C)C)cc(CCCCC)cc1OC(=O)CN(C)C (stereo not drawn) [ALL00105, CBD bis(N,N-dimethylglycinate)]
- 30 h cumulative amt [4]: 6.9 ± 0.0 nmol
- 30 h skin conc [4]: 30.0 ± 0.0 µmol/g
- Flux [4]: 0.6 ± 0.0 nmol/cm^2/h
- Lag time [4]: 18.6 ± 0.0 h
- 30 h cumulative amt [5]: 15.4 ± 0.0 nmol
- 30 h skin conc [5]: 40.2 ± 0.0 µmol/g
- Flux [5]: 1.0 ± 0.0 nmol/cm^2/h
- Lag time [5]: 13.0 ± 0.0 h
- 30 h cumulative amt [6]: 22.3 ± 0.0 nmol
- 30 h skin conc [6]: 70.2 ± 0.0 µmol/g
- Flux [6]: 1.6 ± 0.0 nmol/cm^2/h
- Lag time [6]: 15.2 ± 0.0 h
- Flux enhancement (Table 18, 90:8:2 PG:H2O:IPM donor solution, 40% aqueous PEG 400 receiver fluid): 0.19
- detected in the skin as (in donor solution): mono-substituted prodrug, ALL00148, and cannabidiol
- flux compared to cannabidiol (in donor solution): did not increase the flux
- lag time compared to cannabidiol (in donor solution): not decreased
- permeated through the skin as (in donor solution): mono-substituted prodrug (ALL00148) and cannabidiol
- total skin concentrations compared to cannabidiol (in donor solution): higher

SMILES: C=C(C)[C@@H]1CCC(C)=C[C@H]1c1c(O)cc(CCCCC)cc1O [cannabidiol, reference compound]
- 42 h cumulative amt [7]: 154.4 ± 39.5 nmol
- 42 h skin conc [7]: 19.0 ± 12.8 µmol/g
- Flux [7]: 6.5 ± 0.7 nmol/cm^2/h
- 30 h cumulative amt [8]: 51.6 ± 9.1 nmol
- 30 h skin conc [8]: 10.5 ± 6.5 µmol/g
- Flux [8]: 3.9 ± 0.2 nmol/cm^2/h
- 30 h cumulative amt [9]: 148.6 ± 54.0 nmol
- 30 h skin conc [9]: 21.2 ± 4.8 µmol/g
- Flux [9]: 8.2 ± 2.6 nmol/cm^2/h
- 24 h cumulative amt [1]: 12.3 ± 8.1 nmol
- 24 h skin conc [1]: 9.0 ± 2.2 µmol/g
- Flux [1]: 0.8 ± 0.4 nmol/cm^2/h
- Lag time [1]: 8.5 ± 2.1 h
- 24 h cumulative amt [10]: 6.5 ± 3.8 nmol
- 24 h skin conc [10]: 15.6 ± 4.2 µmol/g
- Flux [10]: 0.4 ± 0.2 nmol/cm^2/h
- Lag time [10]: 5.3 ± 1.7 h
- 24 h skin conc (Table 22, anhydrous gel formulation, 40% aqueous PEG 400 receiver fluid, as applied compound (CBD or intact prodrug)): 3.3 ± 1.3 µmol/g
- 24 h cumulative amt [11]: 3.0 nmol
- 24 h skin conc [11]: 27.7 ± 24.6 µmol/g
- Flux [11]: 0.29 nmol/cm^2/h
- Lag time [11]: 12.8 h
- concentrations in the skin, anhydrous gel formulation compared to the ethanol based gel formulation (anhydrous gel versus ethanol based gel): much lower
